Literature values in US20160287532A1 (SignPath Pharma Inc., priority 2015, published 2016).
Like-named read-outs stand apart in the source and are kept apart here.

Experiments:
IL-8 [1] = conditions: IVD cells pre-treated with IL-1β
MMP-1 [2] = conditions: IVD cells pre-treated with IL-1β
MMP-3 [3] = conditions: IVD cells pre-treated with IL-1β
MMP-13 [4] = conditions: IVD cells pre-treated with IL-1β
IL-6 [5] = conditions: IVD cells pre-treated with IL-1β
IL-8 [6] = conditions: human esophageal epithelial cells
IL-2 = conditions: splenic T lymphocytes
IL-8 [7] = conditions: monocytes and macrophages
TIMP-4 = conditions: high concentrations of curcumin
NF-κB [8] = conditions: IVD cells of patients with acute spinal injury
TNF-α [9] = conditions: acute pancreatitis mouse model
IL-6 [10] = conditions: rheumatoid synovial fibroblasts
MMP-9 [11] = conditions: MDA breast cancer cell line
SOX9 = conditions: IVD cells of patients with acute spinal injury
MMP-3 [12] = conditions: equine cartilage explants; dose dependent
TNF-α [13] = conditions: peritoneal macrophages
TIMP-3 = conditions: high concentrations of curcumin
MMP-3 [14] = conditions: oral, mice; dose dependent manner
MMP-1 [15] = conditions: oral, mice; dose dependent manner
IL-8 [16] = conditions: monocytes, high glucose environment
MCP-1 [17] = conditions: viral induced ARDS mouse model
[18] = if injected intravenously
[19] = test system: monocyte chemoattractant protein-1 (MCP-1); conditions: monocytes and macrophages
[20] = test system: pro-inflammatory cytokines; conditions: pancreatic carcinoma cell lines
IL-6 [21] = test system: IL-6
MMP-1 [22] = conditions: IL-1β pre-stimulated disc cells
TNF-α [23] = conditions: rats with non-bacterial prostatitis
IL-8 [24] = conditions: rats with non-bacterial prostatitis
MMP-2 [25] = conditions: MDA breast cancer cell line
acute pancreatitis = acute pancreatitis mouse model
TNF-α [26] = conditions: monocytes and macrophages
[27] = test system: macrophage inflammatory protein-1α (MIP-1α); conditions: monocytes and macrophages
MMP-2 [28] = conditions: A549 in vitro
MMP-3 [29] = conditions: human astroglioma cells
[30] = test system: pro-inflammatory cytokines; conditions: multiple myeloma cell lines
MMP-3 [31] = conditions: helicobacter pylori infected cells; dose dependent
COX2 = conditions: chondrocytes
IL-8 [32] = conditions: 20 μM curcumin
TIMP-1 [33] = conditions: high concentrations of curcumin
IL-6 [34] = conditions: viral induced ARDS mouse model
collagen type II = conditions: IVD cells of patients with acute spinal injury
MMP-3 [35] = conditions: curcumin added to cell culture
IL-6 [36] = conditions: Wistar albino rats, experimental acute pancreatitis
NF-κB [37] = conditions: chondrocytes
MMP-9 [38] = molecular target: T1, MMP-9 (Homo sapiens, UniProt P14780); conditions: helicobacter pylori infected cells; dose dependent
T1 construct: endogenous in cells; host or cells: human gastric epithelial cells infected with Helicobacter pylori

IL-1β [39] = conditions: monocytes and macrophages
interferon-γ [40] = conditions: splenic T lymphocytes
TNF-α [41] = conditions: Wistar albino rats, experimental acute pancreatitis
IL-12 = conditions: peritoneal macrophages
IL-6 [42] = conditions: monocytes, high glucose environment
IL-8 [43] = conditions: viral induced ARDS mouse model
[44] = test system: pro-inflammatory cytokines; conditions: hepatocellular carcinoma cell lines
IL-1β [45] = test system: IL-1β
MMP-9 [46] = conditions: A549 in vitro
MMP-1 [47] = conditions: human astroglioma cells
MCP-1 [48] = conditions: monocytes, high glucose environment
[49] = test system: type II collagen-induced arthritis; conditions: oral, mice; dose dependent manner
[50] = test system: pro-inflammatory cytokines; conditions: colon carcinoma cell lines
MMP-3 [51] = test system: MMP-3
MMP-2 [52] = conditions: MDA-MB-231 cells
MMP-9 [53] = conditions: chondrocytes
MMP-3 [54] = molecular target: T2, MMP-3 (Homo sapiens, UniProt P08254); conditions: IL-1β stimulated chondrocytes
T2 construct: endogenous in cells; host or cells: IL-1β stimulated chondrocytes

[55] = test system: viral induced acute respiratory distress syndrome; conditions: viral induced ARDS mouse model
MMP-9 [56] = conditions: human astroglioma cells
interferon-γ [57] = conditions: viral induced ARDS mouse model
TNF-α [58] = conditions: monocytes, high glucose environment
TIMP-1 [59] = conditions: MDA-MB-231 cells
IL-6 [60] = conditions: rats with non-bacterial prostatitis
IL-8 [61] = conditions: human articular chondrocytes
TIMP-2 = conditions: high concentrations of curcumin
COX-2 = conditions: 10 μM EGCG, IL-1β stimulated
MMP-13 [62] = conditions: 10 μM EGCG, IL-1β stimulated
IL-8 [63] = conditions: 10 μM EGCG, IL-1β stimulated
IL-6 [64] = conditions: 10 μM EGCG, IL-1β stimulated
MMP-3 [65] = conditions: 10 μM EGCG, IL-1β stimulated
MMP-1 [66] = conditions: 10 μM EGCG, IL-1β stimulated
MMP-3 [67] = conditions: after treatment; decreased from 0.9 ng/mg tissue
MMP-1 [68] = conditions: treated IVD samples

T2 sequence (P08254 100-477): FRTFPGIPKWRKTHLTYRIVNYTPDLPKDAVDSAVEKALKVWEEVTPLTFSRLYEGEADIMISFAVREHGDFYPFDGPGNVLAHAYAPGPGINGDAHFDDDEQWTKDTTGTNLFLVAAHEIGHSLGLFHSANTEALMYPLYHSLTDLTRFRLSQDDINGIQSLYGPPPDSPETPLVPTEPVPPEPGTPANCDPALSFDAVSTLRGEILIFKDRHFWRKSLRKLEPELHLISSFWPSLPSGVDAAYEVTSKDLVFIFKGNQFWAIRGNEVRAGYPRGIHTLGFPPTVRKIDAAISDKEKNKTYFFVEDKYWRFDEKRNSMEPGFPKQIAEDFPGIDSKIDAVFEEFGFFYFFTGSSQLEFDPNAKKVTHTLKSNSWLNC
T1 sequence (P14780 94-707): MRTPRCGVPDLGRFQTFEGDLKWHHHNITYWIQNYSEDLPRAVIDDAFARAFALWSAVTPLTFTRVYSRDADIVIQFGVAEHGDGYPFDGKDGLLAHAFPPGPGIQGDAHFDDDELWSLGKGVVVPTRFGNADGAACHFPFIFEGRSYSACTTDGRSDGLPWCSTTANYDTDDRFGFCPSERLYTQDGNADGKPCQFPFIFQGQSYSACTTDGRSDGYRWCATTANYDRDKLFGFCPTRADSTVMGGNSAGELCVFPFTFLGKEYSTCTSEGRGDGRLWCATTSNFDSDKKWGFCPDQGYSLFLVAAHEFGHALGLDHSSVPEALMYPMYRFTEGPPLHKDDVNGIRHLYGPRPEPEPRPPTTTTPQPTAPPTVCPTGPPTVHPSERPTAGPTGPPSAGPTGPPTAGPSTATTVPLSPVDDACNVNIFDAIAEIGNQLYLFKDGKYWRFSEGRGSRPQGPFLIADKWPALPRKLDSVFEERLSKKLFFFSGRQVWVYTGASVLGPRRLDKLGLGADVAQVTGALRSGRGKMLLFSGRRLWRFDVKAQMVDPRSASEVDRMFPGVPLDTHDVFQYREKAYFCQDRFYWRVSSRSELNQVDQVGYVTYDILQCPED

## Oc1ccc(C=Cc2cc(O)cc(O)c2)cc1 [Resveratrol, resveratrol]
IL-8 [1]
  levels of IL-8: reduced
MMP-1 [2]
  levels of MMP-1: reduced
MMP-3 [3]
  levels of MMP-3: reduced
MMP-13 [4]
  levels of MMP-13: reduced
IL-6 [5]
  levels of IL-6: reduced

## COc1cc(/C=C/C(=O)/C=C(O)/C=C/c2ccc(O)c(OC)c2)ccc1O [curcumin, 1,7-bis(4-hydroxy-3-methoxyphenyl)-1,6-heptadiene-3,5-dione]
IL-8 [6]
  release of IL-8: block
IL-2
  expression of IL-2: inhibited
IL-8 [7]
  IL-8 release: suppresses
TIMP-4
  TIMP-4: up-regulated
NF-κB [8]
  IL-1 induced NF-κB activity: blocked
TNF-α [9]
  TNF-α levels: suppression
IL-6 [10]
  release of IL-6: block
MMP-9 [11]
  MMP-9: inhibited
SOX9
  IL-1 inhibition of SOX9 expression: reversed
MMP-3 [12]
  IL-1β stimulated MMP-3 release: reduced
TNF-α [13]
  production of TNF-α: inhibited
TIMP-3
  TIMP-3: up-regulated
MMP-3 [14]
  MMP-3 expression in joints: suppress
MMP-1 [15]
  MMP-1 expression in joints: suppress
IL-8 [16]
  release of IL-8: markedly reduced
MCP-1 [17]
  expression of MCP-1: reduced
[18]
  cardiopathy: QT prolongation
[19]
  MCP-1 release: suppresses
[20]
  pro-inflammatory cytokines: suppressed
IL-6 [21]; 10 μM curcumin
  expression of IL-6 decreased: 50%
IL-6 [21]; 20 μM curcumin
  expression of IL-6 decreased: 70%
MMP-1 [22]; 5 μM curcumin
  reduction in MMP-1 expression: 22%
MMP-1 [22]; 10 μM curcumin
  reduction in MMP-1 expression: 60%
MMP-1 [22]; 20 μM curcumin
  reduction in MMP-1 expression: 78%
TNF-α [23]
  TNF-α expression: reduced
IL-8 [24]
  IL-8 expression: reduced
MMP-2 [25]
  MMP-2: inhibited
Acute pancreatitis
  pancreatic injury: decreased
TNF-α [26]
  TNF-α release: suppresses
[27]
  MIP-1α release: suppresses
MMP-2 [28]
  MMP-2: Inhibition
MMP-3 [29]
  MMP-3: Suppression
[30]
  pro-inflammatory cytokines: suppressed
MMP-3 [31]
  MMP-3 activity: suppressed
COX2
  COX2 regulation: down regulation
IL-8 [32]
  IL-8 expression reduced: 50%
TIMP-1 [33]
  TIMP-1: up-regulated
IL-6 [34]
  expression of IL-6: reduced
Collagen type II
  IL-1 inhibition of collagen type II expression: reversed
MMP-3 [35]
  MMP-3: dose dependent suppression
IL-6 [36]
  IL-6 levels: reduced
NF-κB [37]
  IL-1 induced NF-κB activation: decrease
MMP-9 [38]
  MMP-9 activity: suppressed
IL-1β [39]
  IL-1β release: suppresses
interferon-γ [40]
  production of interferon-γ: inhibited
TNF-α [41]
  TNF-α levels: reduced
IL-12
  expression of IL-12: inhibited
IL-6 [42]
  release of IL-6: markedly reduced
IL-8 [43]
  expression of IL-8: reduced
[44]
  pro-inflammatory cytokines: suppressed
IL-1β [45]; 10 μM curcumin
  Expression of IL-1β reduced: 70%
IL-1β [45]; 20 μM curcumin
  Expression of IL-1β reduced: 75%
MMP-9 [46]
  MMP-9: Inhibition
MMP-1 [47]
  MMP-1: Suppression
MCP-1 [48]
  release of MCP-1: markedly reduced
[49]
  type II collagen-induced arthritis: suppress
[50]
  pro-inflammatory cytokines: suppressed
MMP-3 [51]; 10 μM curcumin
  MMP-3 expression reduced: 70%
MMP-3 [51]; 20 μM curcumin
  MMP-3 expression reduced: 75%
MMP-2 [52]
  MMP-2: down-regulated
MMP-9 [53]
  MMP-9 regulation: down regulation
MMP-3 [54]
  MMP-3 activity: inhibited
[55]
  fibrosis: reduction
  inflammation: marked decrease
MMP-9 [56]
  MMP-9: Suppression
interferon-γ [57]
  expression of interferon-γ: reduced
TNF-α [58]
  release of TNF-α: markedly reduced
TIMP-1 [59]
  TIMP-1: up-regulated
IL-6 [60]
  IL-6 expression: reduced
IL-8 [61]
  release of IL-8: block
TIMP-2
  TIMP-2: up-regulated

## epigallocatechin 3-gallate [EGCG]
COX-2
  expression of COX-2: inhibited
MMP-13 [62]
  expression of MMP-13: inhibited
IL-8 [63]
  expression of IL-8: inhibited
IL-6 [64]
  expression of IL-6: inhibited
MMP-3 [65]
  expression of MMP-3: inhibited
MMP-1 [66]
  expression of MMP-1: inhibited

## IL-1Ra: recombinant interleukin-1 receptor antagonist
MMP-3 [67]
  concentration of total MMP-3 activity: 0.35 ng/mg tissue
MMP-1 [68]
  effect on MMP-1 concentration: no effect
